Measurements reported in ChEMBL document CHEMBL4507273 (2021).

Assays:
[1] = molecular target: Activin receptor type-1B (Homo sapiens) (UniProt P36896); settings: Compound concentration 1000.0 nM
[2] = tested on: ALK tyrosine kinase receptor (Homo sapiens), Q9UM73 [L1196M]; settings: Compound concentration 1000.0 nM
[3] = molecular target: Mitogen-activated protein kinase kinase kinase 6 (Homo sapiens) (UniProt O95382); settings: Compound concentration 1000.0 nM
[4] = molecular target: Tyrosine-protein kinase receptor UFO (Homo sapiens) (UniProt P30530); settings: Compound concentration 1000.0 nM
[5] = molecular target: Cyclin-dependent kinase 13 (Homo sapiens) (UniProt Q14004); settings: Compound concentration 1000.0 nM
[6] = molecular target: Cyclin-dependent kinase 19 (Homo sapiens) (UniProt Q9BWU1); settings: Compound concentration 1000.0 nM
[7] = molecular target: Casein kinase I isoform alpha (Homo sapiens) (UniProt P48729); settings: Compound concentration 1000.0 nM
[8] = molecular target: Death-associated protein kinase 3 (Homo sapiens) (UniProt O43293); settings: Compound concentration 1000.0 nM
[9] = molecular target: Serine/threonine-protein kinase DCLK2 (Homo sapiens) (UniProt Q8N568); settings: Compound concentration 1000.0 nM
[10] = molecular target: Serine/threonine-protein kinase MRCK gamma (Homo sapiens) (UniProt Q6DT37); settings: Compound concentration 1000.0 nM
[11] = molecular target: Ephrin type-B receptor 1 (Homo sapiens) (UniProt P54762); settings: Compound concentration 1000.0 nM
[12] = molecular target: Rhodopsin kinase GRK7 (Homo sapiens) (UniProt Q8WTQ7); settings: Compound concentration 1000.0 nM
[13] = molecular target: Glycogen synthase kinase-3 beta (Homo sapiens) (UniProt P49841); settings: Compound concentration 1000.0 nM
[14] = molecular target: Serine/threonine-protein kinase haspin (Homo sapiens) (UniProt Q8TF76); settings: Compound concentration 1000.0 nM
[15] = molecular target: Interleukin-1 receptor-associated kinase 1 (Homo sapiens) (UniProt P51617); settings: Compound concentration 1000.0 nM
[16] = molecular target: Mast/stem cell growth factor receptor Kit (Homo sapiens) (UniProt P10721); settings: Compound concentration 1000.0 nM
[17] = molecular target: Serine/threonine-protein kinase LATS2 (Homo sapiens) (UniProt Q9NRM7); settings: Compound concentration 1000.0 nM
[18] = molecular target: Tyrosine-protein kinase Lck (Homo sapiens) (UniProt P06239); settings: Compound concentration 1000.0 nM
[19] = molecular target: Serine/threonine-protein kinase mTOR (Homo sapiens) (UniProt P42345); settings: Compound concentration 1000.0 nM
[20] = molecular target: Serine/threonine-protein kinase Nek3 (Homo sapiens) (UniProt P51956); settings: Compound concentration 1000.0 nM
[21] = molecular target: Mitogen-activated protein kinase 14 (Homo sapiens) (UniProt Q16539); settings: Compound concentration 1000.0 nM
[22] = molecular target: Mitogen-activated protein kinase 13 (Homo sapiens) (UniProt O15264); settings: Compound concentration 1000.0 nM
[23] = molecular target: Interferon-induced, double-stranded RNA-activated protein kinase (Homo sapiens) (UniProt P19525); settings: Compound concentration 1000.0 nM
[24] = molecular target: Ribosomal protein S6 kinase alpha-4 (Homo sapiens) (UniProt O75676); settings: Compound concentration 1000.0 nM
[25] = molecular target: Serine/threonine-protein kinase SBK1 (Homo sapiens) (UniProt Q52WX2); settings: Compound concentration 1000.0 nM
[26] = molecular target: Serine/threonine-protein kinase Sgk3 (Homo sapiens) (UniProt Q96BR1); settings: Compound concentration 1000.0 nM
[27] = molecular target: Serine/threonine-protein kinase SIK2 (Homo sapiens) (UniProt Q9H0K1); settings: Compound concentration 1000.0 nM
[28] = molecular target: TRAF2 and NCK-interacting protein kinase (Homo sapiens) (UniProt Q9UKE5); settings: Compound concentration 1000.0 nM
[29] = molecular target: Tyrosine-protein kinase receptor TYRO3 (Homo sapiens) (UniProt Q06418); settings: Compound concentration 1000.0 nM
[30] = molecular target: 5-hydroxytryptamine receptor 1E (Homo sapiens) (UniProt P28566); settings: Compound concentration 10.0 uM
[31] = molecular target: 5-hydroxytryptamine receptor 6 (Homo sapiens) (UniProt P50406); settings: Compound concentration 10.0 uM
[32] = molecular target: T1, Alpha-2A adrenergic receptor (Homo sapiens) (UniProt P08913); settings: Compound concentration 10.0 uM
T1 sequence (whole entry): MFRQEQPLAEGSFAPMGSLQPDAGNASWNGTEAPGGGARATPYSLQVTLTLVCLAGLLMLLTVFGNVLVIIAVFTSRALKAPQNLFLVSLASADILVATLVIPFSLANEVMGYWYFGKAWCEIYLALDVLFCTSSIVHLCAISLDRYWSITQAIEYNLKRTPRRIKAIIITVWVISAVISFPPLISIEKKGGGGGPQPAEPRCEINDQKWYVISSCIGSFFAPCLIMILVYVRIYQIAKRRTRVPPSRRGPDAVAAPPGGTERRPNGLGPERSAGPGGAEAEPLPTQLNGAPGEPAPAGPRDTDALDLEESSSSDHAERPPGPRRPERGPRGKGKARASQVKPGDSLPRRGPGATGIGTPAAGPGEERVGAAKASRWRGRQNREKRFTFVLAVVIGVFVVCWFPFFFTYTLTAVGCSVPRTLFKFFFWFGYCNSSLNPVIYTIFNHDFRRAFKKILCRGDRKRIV

[33] = molecular target: T2, Muscarinic acetylcholine receptor M1 (Homo sapiens) (UniProt P11229); settings: Compound concentration 10.0 uM
T2 sequence (whole entry): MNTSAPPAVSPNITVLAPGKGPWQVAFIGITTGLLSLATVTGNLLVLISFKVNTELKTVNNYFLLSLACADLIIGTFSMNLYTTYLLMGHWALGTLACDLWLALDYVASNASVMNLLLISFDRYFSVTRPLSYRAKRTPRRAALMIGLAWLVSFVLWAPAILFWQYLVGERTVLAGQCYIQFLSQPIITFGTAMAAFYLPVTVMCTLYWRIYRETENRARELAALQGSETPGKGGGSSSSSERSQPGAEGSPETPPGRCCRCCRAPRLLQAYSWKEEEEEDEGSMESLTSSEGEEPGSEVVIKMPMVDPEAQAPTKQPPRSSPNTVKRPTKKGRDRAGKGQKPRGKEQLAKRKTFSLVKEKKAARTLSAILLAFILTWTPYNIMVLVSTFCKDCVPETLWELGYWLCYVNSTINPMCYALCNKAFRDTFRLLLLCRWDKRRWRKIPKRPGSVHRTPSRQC

Sequence of Cyclin-dependent kinase 13 (Homo sapiens) (Q14004 whole entry, looked up): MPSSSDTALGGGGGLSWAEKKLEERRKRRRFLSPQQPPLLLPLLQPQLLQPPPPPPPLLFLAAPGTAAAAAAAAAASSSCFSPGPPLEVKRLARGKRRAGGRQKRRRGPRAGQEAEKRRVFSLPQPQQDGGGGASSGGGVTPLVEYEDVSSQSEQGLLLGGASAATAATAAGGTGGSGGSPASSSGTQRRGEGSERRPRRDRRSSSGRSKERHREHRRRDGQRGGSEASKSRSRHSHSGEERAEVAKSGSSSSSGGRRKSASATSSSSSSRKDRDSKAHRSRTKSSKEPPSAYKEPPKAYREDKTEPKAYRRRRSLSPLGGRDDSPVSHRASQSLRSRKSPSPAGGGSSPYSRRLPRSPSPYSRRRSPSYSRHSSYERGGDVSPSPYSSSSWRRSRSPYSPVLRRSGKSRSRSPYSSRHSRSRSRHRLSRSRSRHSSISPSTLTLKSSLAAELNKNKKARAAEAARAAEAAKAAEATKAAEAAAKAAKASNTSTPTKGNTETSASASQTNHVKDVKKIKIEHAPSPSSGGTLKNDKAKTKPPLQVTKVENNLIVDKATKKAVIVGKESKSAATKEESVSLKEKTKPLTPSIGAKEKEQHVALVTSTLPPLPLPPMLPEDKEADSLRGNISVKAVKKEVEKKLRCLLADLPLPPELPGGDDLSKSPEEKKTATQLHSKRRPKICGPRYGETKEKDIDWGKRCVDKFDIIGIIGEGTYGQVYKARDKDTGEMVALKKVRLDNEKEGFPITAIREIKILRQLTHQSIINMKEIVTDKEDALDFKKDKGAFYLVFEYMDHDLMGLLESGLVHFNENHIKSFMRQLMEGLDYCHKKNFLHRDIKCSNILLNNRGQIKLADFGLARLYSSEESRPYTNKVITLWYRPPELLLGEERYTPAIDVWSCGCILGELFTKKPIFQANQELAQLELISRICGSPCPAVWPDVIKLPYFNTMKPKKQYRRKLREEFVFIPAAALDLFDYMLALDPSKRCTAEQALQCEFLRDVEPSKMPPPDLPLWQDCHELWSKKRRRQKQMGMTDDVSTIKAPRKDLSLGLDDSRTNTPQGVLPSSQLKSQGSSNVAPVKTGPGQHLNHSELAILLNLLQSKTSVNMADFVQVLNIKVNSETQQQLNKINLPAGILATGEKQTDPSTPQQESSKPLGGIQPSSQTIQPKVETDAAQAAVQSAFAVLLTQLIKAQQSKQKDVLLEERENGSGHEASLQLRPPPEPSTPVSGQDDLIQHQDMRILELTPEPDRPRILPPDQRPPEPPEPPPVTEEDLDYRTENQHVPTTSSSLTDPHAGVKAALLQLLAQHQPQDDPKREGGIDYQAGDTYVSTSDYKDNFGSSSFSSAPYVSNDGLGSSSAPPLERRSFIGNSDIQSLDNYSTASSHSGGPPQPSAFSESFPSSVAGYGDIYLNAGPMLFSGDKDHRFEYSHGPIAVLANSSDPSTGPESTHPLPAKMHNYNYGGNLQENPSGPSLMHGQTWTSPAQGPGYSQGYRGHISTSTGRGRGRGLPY
Sequence of Mitogen-activated protein kinase kinase kinase 6 (Homo sapiens) (O95382 whole entry): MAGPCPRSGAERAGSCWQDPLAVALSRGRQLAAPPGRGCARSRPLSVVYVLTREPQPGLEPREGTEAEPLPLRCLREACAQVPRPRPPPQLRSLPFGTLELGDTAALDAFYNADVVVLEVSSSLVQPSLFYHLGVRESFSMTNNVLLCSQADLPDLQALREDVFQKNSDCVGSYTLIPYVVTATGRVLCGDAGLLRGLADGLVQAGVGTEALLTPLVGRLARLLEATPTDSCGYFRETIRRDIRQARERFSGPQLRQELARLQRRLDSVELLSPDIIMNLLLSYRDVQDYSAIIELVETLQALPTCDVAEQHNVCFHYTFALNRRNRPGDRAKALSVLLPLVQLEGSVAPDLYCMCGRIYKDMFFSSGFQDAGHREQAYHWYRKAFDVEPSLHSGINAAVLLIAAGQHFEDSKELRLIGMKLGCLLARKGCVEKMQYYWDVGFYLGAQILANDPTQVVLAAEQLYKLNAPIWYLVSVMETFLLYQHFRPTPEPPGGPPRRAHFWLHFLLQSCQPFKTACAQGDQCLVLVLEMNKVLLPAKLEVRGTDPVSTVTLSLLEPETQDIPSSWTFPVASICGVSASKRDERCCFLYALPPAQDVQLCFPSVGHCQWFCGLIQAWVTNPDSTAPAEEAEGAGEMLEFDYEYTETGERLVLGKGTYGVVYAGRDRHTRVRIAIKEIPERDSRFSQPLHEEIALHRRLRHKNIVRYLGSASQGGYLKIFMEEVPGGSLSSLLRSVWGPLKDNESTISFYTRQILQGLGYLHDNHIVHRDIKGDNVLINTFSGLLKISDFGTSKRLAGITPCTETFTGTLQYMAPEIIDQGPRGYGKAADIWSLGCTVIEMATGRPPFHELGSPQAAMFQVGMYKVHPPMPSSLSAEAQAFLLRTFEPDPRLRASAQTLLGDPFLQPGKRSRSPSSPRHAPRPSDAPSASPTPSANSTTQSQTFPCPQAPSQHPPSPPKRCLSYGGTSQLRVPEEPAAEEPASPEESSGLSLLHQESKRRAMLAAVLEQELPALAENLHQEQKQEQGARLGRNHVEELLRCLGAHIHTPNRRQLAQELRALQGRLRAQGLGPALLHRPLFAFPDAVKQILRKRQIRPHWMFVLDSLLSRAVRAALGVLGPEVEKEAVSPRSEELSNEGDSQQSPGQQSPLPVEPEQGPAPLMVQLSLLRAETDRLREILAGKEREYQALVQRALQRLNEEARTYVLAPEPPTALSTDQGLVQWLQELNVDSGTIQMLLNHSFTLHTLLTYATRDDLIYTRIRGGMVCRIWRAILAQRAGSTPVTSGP
Sequence of Ephrin type-B receptor 1 (Homo sapiens) (P54762 whole entry): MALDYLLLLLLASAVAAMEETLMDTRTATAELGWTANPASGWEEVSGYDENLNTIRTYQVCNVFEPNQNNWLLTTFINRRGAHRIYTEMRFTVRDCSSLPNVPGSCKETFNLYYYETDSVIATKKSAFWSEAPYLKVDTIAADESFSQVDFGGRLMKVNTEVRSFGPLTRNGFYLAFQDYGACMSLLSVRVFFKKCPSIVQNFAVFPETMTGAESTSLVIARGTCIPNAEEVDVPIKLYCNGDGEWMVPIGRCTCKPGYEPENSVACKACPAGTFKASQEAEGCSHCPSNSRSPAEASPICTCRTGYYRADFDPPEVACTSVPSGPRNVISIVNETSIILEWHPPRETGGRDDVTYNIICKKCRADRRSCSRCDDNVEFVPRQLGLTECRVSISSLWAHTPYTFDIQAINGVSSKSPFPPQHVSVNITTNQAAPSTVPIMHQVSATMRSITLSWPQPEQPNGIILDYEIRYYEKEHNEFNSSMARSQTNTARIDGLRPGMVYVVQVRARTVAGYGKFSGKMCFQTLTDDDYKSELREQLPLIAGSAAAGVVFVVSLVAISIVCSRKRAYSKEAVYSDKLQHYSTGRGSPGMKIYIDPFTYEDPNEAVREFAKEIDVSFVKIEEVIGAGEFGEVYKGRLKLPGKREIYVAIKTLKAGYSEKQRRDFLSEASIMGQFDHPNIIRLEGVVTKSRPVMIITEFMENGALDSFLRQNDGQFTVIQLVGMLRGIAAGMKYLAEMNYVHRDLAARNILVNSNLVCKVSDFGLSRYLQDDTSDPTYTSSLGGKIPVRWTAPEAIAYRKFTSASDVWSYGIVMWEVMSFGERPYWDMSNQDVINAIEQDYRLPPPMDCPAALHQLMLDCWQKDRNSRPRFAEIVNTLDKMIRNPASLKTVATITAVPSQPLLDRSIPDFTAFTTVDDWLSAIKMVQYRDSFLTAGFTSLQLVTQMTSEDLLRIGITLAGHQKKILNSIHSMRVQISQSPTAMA
Sequence of 5-hydroxytryptamine receptor 1E (Homo sapiens) (P28566 whole entry): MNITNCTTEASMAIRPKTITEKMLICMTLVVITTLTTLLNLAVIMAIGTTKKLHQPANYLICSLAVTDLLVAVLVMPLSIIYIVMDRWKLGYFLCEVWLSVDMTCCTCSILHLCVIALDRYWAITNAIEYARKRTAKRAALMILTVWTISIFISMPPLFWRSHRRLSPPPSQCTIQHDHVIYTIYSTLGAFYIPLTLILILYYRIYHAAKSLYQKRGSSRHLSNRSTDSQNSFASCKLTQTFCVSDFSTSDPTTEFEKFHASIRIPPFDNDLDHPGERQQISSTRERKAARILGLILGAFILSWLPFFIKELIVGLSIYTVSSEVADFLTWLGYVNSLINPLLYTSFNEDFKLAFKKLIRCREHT
Sequence of 5-hydroxytryptamine receptor 6 (Homo sapiens) (P50406 whole entry): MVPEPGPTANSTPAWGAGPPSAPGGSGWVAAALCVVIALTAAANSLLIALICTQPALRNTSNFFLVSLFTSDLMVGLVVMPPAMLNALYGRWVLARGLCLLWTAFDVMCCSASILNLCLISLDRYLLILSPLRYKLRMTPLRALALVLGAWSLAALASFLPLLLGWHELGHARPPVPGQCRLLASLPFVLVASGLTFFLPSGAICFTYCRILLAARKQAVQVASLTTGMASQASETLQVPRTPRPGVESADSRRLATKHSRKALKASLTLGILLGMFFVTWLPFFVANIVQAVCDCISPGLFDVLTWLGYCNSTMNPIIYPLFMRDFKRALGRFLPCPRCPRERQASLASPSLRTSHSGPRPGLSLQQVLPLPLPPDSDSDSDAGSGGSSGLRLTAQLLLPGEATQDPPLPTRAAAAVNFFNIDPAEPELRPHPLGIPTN
Sequence of Serine/threonine-protein kinase Sgk3 (Homo sapiens) (Q96BR1 whole entry): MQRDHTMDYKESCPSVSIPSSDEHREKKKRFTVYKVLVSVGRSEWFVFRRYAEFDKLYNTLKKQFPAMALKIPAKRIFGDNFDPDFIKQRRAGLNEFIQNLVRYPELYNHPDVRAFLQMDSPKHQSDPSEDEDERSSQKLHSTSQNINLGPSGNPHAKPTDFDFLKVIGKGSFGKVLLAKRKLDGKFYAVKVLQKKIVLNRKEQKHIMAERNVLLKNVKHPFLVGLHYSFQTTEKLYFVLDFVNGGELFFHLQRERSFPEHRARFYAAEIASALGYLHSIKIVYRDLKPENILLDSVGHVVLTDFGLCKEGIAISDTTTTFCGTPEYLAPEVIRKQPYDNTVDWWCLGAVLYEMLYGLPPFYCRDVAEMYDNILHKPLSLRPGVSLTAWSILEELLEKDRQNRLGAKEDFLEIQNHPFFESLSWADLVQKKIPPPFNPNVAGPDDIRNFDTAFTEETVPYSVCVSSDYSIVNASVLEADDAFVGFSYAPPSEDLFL

| SMILES | residual activity [1] | residual activity [2] | residual activity [3] | residual activity [4] | residual activity [5] | residual activity [6] | residual activity [7] | residual activity [8] | residual activity [9] | residual activity [10] | residual activity [11] | residual activity [12] | residual activity [13] | residual activity [14] | residual activity [15] | residual activity [16] | residual activity [17] | residual activity [18] | residual activity [19] | residual activity [20] | further results |
| --- | --- | --- | --- | --- | --- | --- | --- | --- | --- | --- | --- | --- | --- | --- | --- | --- | --- | --- | --- | --- | --- |
| CNCc1ccccc1-c1csc([C@H](C)Nc2nc(C)nc3cc(OC)c(OC)cc23)c1 [BAY-294] | 100% | 93% | 100% | 100% | 93% | 88% | 74% | 100% | 100% | 100% | 100% | 89% | 100% | 100% | 80% | 100% | 95% | 100% | 100% | 87% | residual activity [21]: 100%; residual activity [22]: 100%; residual activity [23]: 100%; residual activity [24]: 100%; residual activity [25]: 100%; residual activity [26]: 93%; residual activity [27]: 100%; residual activity [28]: 99%; residual activity [29]: 100%; inhibition [30]: 10.8%; inhibition [31]: 20.2%; inhibition [32]: 93.5%; inhibition [33]: 89.1% |
| CNCc1ccccc1-c1csc([C@@H](C)Nc2nc(C)nc3cc(OC)c(OC)cc23)c1 [BAY-293] | 91% | 100% | 99% | 93% | 89% | 85% | 73% | 100% | 99% | 98% | 100% | 83% | 90% | 98% | 71% | 100% | 98% | 100% | 100% | 100% | residual activity [21]: 87%; residual activity [22]: 100%; residual activity [23]: 90%; residual activity [24]: 100%; residual activity [25]: 100%; residual activity [26]: 78%; residual activity [27]: 100%; residual activity [28]: 85%; residual activity [29]: 89%; inhibition [30]: 5.81%; inhibition [31]: -1.41%; inhibition [32]: 91.7%; inhibition [33]: 88.8% |
